Series [1] in a line: AUC(0 to infinity) in Sprague-Dawley rat at 20 mg/kg, po by LC-MS/MS analysis. The format is ADME, organism-based. Details: dose 20 mg/kg, route po. The note with it: in vivo.
The nature of series [2]: MRT(0 to t) in Sprague-Dawley rat at 2 mg/kg, iv by LC-MS/MS analysis. As to conditions: in vivo. Type of series: ADME, organism-based.
Series [3] can be described thus: AUC(0 to t) in Sprague-Dawley rat at 20 mg/kg, po by LC-MS/MS analysis. Also noted: dose 20 mg/kg, route po. The note with it: in vivo. The format is ADME, organism-based.
Series [4] deals with Hepatitis B virus. Description: Antiviral activity against Hepatitis B virus infected in human HLCZ01 cells assessed as reduction in HBsAg level at 0.03 to 3 uM incubated for 6 days by ELISA. Type of series: functional, organism-based. The note with it: dose 0.03-3 µM, time 6.0 day.
Series [5] concerns Hepatitis B virus. Description: Antiviral activity against Hepatitis B virus infected in human HePAD38 cells assessed as inhibition of viral DNA replication by qPCR analysis. The format is functional, organism-based. A general note: Quantitative PCR measures a nucleic acid by following its amplification.
Series [6] is described as follows: Cytotoxicity against human HePAD38 cells assessed as reduction in cell viability incubated for 72 hrs by CCK8 assay. Type of series: toxicity, cell-based. In general terms: Tetrazolium dyes change colour on reduction, which living cells bring about.
The nature of series [7]: Selectivity index, ratio of CC50 for cytotoxicity against human HePAD38 cells to EC50 for antiviral activity against Hepatitis B virus infected in human HePAD38 cells. The format is toxicity, cell-based. As to conditions: read-out: Ratio CC50/EC50.
A short description of series [8]: Metabolic stability of the compound in human liver microsomes assessed as parent compound remaining at 100 uM incubated for 60 mins in absence of NADPH by LC-MS/MS analysis. Type of series: ADME, Microsome. The note with it: read-out: Stability. On the technique in general: Liver microsomes are a subcellular fraction often used to study metabolism.
A short description of series [9]: Metabolic stability of the compound in human liver microsomes assessed as parent compound remaining at 100 uM incubated for 60 mins in presence of NADPH by LC-MS/MS analysis. Type of series: ADME, Microsome. The note with it: read-out: Stability.
A short description of series [10]: MRT(0 to t) in Sprague-Dawley rat at 20 mg/kg, po by LC-MS/MS analysis. The format is ADME, organism-based. The note with it: in vivo.
The subject of series [11] is Hepatitis B virus. As to the kind of experiment: Antiviral activity against Hepatitis B virus infected in C57BL/6J mouse assessed as inhibition of viral DNA level in serum at 25 mg/kg/day, po for 18 days by qPCR analysis. The format is functional, organism-based. The note with it: time 18.0 day.
The nature of series [12]: Half life in human plasma at 100 uM by LC-MS/MS analysis. Type of series: ADME, cell-free.
A short description of series [13]: Cmax in Sprague-Dawley rat at 2 mg/kg, iv by LC-MS/MS analysis. Type of series: ADME, organism-based. Also noted: dose 2 mg/kg, route iv. The note with it: in vivo.
Series [14] can be described thus: AUC(0 to infinity) in Sprague-Dawley rat at 2 mg/kg, iv by LC-MS/MS analysis. As to conditions: in vivo. The format is ADME, organism-based. Details: dose 2 mg/kg, route iv.
Series [15] in a line: Tmax in Sprague-Dawley rat at 20 mg/kg, po by LC-MS/MS analysis. Type of series: ADME, organism-based. As to conditions: in vivo.
The subject of series [16] is Hepatitis B virus. As to the kind of experiment: Antiviral activity against Hepatitis B virus infected in C57BL/6J mouse assessed as reduction in HBsAg level in serum at 25 mg/kg/day, po for 18 days by ELISA. Type of series: functional, organism-based. The note with it: time 18.0 day.
The nature of series [17]: Half life in Sprague-Dawley rat at 2 mg/kg, iv by LC-MS/MS analysis. The format is ADME, organism-based. The note with it: in vivo.
Series [18] is described as follows: Oral bioavailability in Sprague-Dawley rat at 20 mg/kg by LC-MS/MS analysis. The note with it: in vivo. The format is ADME, organism-based.
A short description of series [19]: Volume of distribution at steady state in Sprague-Dawley rat at 2 mg/kg, iv by LC-MS/MS analysis. The format is ADME, organism-based. As to conditions: in vivo.
Series [20] in a line: Cytotoxicity against human HLCZ01 cells assessed as reduction in cell viability upto 30 uM incubated for 72 hrs by CCK8 assay. Type of series: toxicity, cell-based. The note with it: hlcz01, 72 h.
The target in the next series is Core antigen (Hepatitis B virus, UniProt Q03732). Description: Inhibition of fluorescent-labeled capsid assembly in Hepatitis B virus incubated for 1 hr by fluorescence based analysis.
The test system of series [21] is Hepatitis B virus. As to the kind of experiment: Antiviral activity against Hepatitis B virus infected in C57BL/6J mouse assessed as reduction in HBcAg expression […] at 25 mg/kg/day, po for 18 days by immunohistochemistry. Type of series: functional, organism-based. The note with it: time 18.0 day.
Series [22] can be described thus: Cmax in Sprague-Dawley rat at 20 mg/kg, po by LC-MS/MS analysis. Type of series: ADME, organism-based. Also noted: dose 20 mg/kg, route po. As to conditions: in vivo.
Series [23] can be described thus: Hepatotoxicity in C57BL/6J mouse infected with Hepatitis B virus assessed as serum AST level at 25 mg/kg/day, po for 18 days by colorimetry. Type of series: toxicity, organism-based. The note with it: in vivo, 432 h, time 18 day.
A short description of series [24]: Half life in Sprague-Dawley rat at 20 mg/kg, po by LC-MS/MS analysis. Type of series: ADME, organism-based. The note with it: in vivo.
Series [25] is described as follows: Hepatotoxicity in C57BL/6J mouse infected with Hepatitis B virus assessed as serum ALT level at 25 mg/kg/day, po for 18 days by colorimetry. The note with it: in vivo, 432 h, time 18 day. Type of series: toxicity, organism-based.
Series [26] in a line: Intrinsic clearance in human liver microsomes at 100 uM preincubated for 10 mins followed by incubation with NADPH regenerating system for 30 mins and measured per mg protein by LC-MS/MS analysis. The format is ADME, Microsome. The note with it: time 40 min, read-out: CLH.
Series [27] can be described thus: AUC(0 to t) in Sprague-Dawley rat at 2 mg/kg, iv by LC-MS/MS analysis. Details: dose 2 mg/kg, route iv. Type of series: ADME, organism-based. The note with it: in vivo.
Series [28] is described as follows: MRT(0 to infinity) in Sprague-Dawley rat at 20 mg/kg, po by LC-MS/MS analysis. The note with it: in vivo. The format is ADME, organism-based.
Series [29] can be described thus: Half life in human liver microsomes at 100 uM preincubated for 10 mins followed by incubation with NADPH regenerating system for 30 mins by LC-MS/MS analysis. Type of series: ADME, Microsome. As to conditions: time 40 min.
For series [30], the system named is Hepatitis B virus. As to the kind of experiment: Antiviral activity against Hepatitis B virus infected in human HLCZ01 cells assessed as inhibition of HBV virion production by measuring inhibition of viral DNA replication incubated for 6 days by qPCR analysis. The format is functional, organism-based.

Active and inactive are the calls of the source. The calls are words filed in the database; no cut-off is given here.

Sequence of Core antigen (Q03732 whole entry): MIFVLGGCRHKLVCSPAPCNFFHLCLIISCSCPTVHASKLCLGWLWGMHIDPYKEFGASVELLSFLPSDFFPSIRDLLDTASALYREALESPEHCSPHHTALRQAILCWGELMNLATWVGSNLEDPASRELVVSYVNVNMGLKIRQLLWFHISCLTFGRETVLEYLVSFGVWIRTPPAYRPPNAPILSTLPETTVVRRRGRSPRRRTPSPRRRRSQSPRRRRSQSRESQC

Usually AUC(0-inf) stands for the area under the concentration-time curve extrapolated to infinity. High values mean more exposure, low ones less exposure. What is called MRT last is the average time that molecules of a dose stay in the body. Broadly, the AUC(0-t) is the area under the concentration-time curve up to a stated or last time point. Lower therefore signals low exposure. The EC50 is the concentration giving half of the maximal effect. By CC50 is commonly meant the concentration at which the toxic effect on the cells reaches its halfway point. As a reminder, the half-life is how long it takes for the measured level to halve. Low values mean rapid decline, high ones slow decline. As usually defined, the Cmax is the maximum level reached in the sampled fluid or tissue. The term Tmax denotes the time at which the peak concentration occurs. For orientation: bioavailability means the share of a dose that reaches the circulation, judged against a reference dose that is usually intravenous. The low end stands for poor availability, the high end for good availability. By Vdss is commonly meant a proportionality between amount in the body and measured concentration, not a real space. Low values mean confinement near the circulation, high ones extensive tissue distribution. For orientation: IC50 means the midpoint of a concentration-inhibition curve. As usually defined, the MRT inf is the average time that molecules of a dose stay in the body. Take `C=CCNC(=S)Nc1cc(C(=O)Nc2ccc(F)c(C)c2)c(C)cc1F`: the figures for the total exposure AUC(0-inf) in series [1] and in series [14] were 22000 ng·h/mL and 3260 ng·h/mL, respectively. The mean residence time MRT last in series [2] was found to be 0.82 h; in series [10], 3.16 h. The exposure AUC(0-t) in [3] came to 22000 ng·h/mL; in series [27], 3260 ng·h/mL. The outcome in the series with Hepatitis B virus [4] and in the series on Hepatitis B virus [16] was inactive. Also, the EC50 in the series on Hepatitis B virus [5] was 12 nM; in the series with Hepatitis B virus [30] (HLCZ01, 144 h), 33 nM. Moreover, the CC50 at 72 h in series [6] turned out to be 26600 nM. In series [7], the selectivity ratio was 2210. Further, the values for the remaining at 1 h, 100 µM in [8] and in series [9] were 72.6% and 31.2%, respectively. Moreover, the outcome with Hepatitis B virus [11] and in the series with Hepatitis B virus [21] was Active. In addition, the half-life at 100 µM was 0.9 h in series [12] and 0.635 h in [29]. Moreover, the results for the Cmax in series [13] and in [22] were 5390 ng/mL and 4770 ng/mL, respectively. For the same compound, the Tmax in [15] stood at 1.83 h. For the same compound, the figures for the half-life in series [17] and in [24] were 0.98 h and 1.67 h, respectively. In series [18], this compound yielded a bioavailability of 67.7%. Further, in series [19], the Vdss amounted to 0.51 L/kg. For the same compound, the Activity entry was “Non-Toxic” in series [20], “Non-Toxic” in series [23], “Non-Toxic” in series [25] and “Dose-Dependent Effect” with Hepatitis B virus [30] (time 6.0 day). Further, inhibition against Core antigen was half-maximal at 880 nM (IC50). Moreover, the microsomal CLint at 100 µM in [26] is 36.4 µL/min/mg. Besides, in [28], the MRT inf came to 3.26 h.
For `O=C(Nc1cc(F)c(F)c(F)c1)c1ccc(F)c(S(=O)(=O)N2CCC(O)CC2)c1`, the half-maximal effective concentration (EC50) in the series with Hepatitis B virus [5] was determined as 350 nM. Moreover, in [6], the CC50 at 72 h is 16700 nM. The selectivity ratio in series [7] was determined as 47.6. The same compound registered an IC50 on Core antigen of 1530 nM.
For `Cc1cc(NC(=O)c2cc(NC(=S)NC(C)C)c(F)cc2Br)ccc1F`, in that order: 140 nM, above 100000 nM, above 714 and 940 nM.
As to `O=C(O)Cc1ccccc1Nc1c(Cl)cccc1Cl` [DICLOFENAC], in series [26], the microsomal CLint at 100 µM was 257 µL/min/mg.
For `Cc1cc(NC(=O)c2cc(NC(=O)NCc3ccc(O)cc3)c(F)cc2Br)ccc1F`, in the series with Hepatitis B virus [5], the EC50 came out at 120 nM. Further, the half-maximal cytotoxic concentration (CC50) at 72 h in series [6] turned out to be 1990 nM. The selectivity ratio in series [7] came out at 16.6.
For `Cc1cc(NC(=O)c2cc(NC(=O)C3CCCCC3)c(F)cc2Br)ccc1F`, the EC50 in the series on Hepatitis B virus [5] is 1350 nM. Also, the 50% cytotoxic concentration (CC50) at 72 h in series [6] amounted to 20700 nM. In series [7], the selectivity ratio came to 15.3.
For `Cc1cc(NC(=O)c2cc(NC(=O)c3cc(F)c(F)c(F)c3)c(F)cc2Br)ccc1F`, in that order: 830 nM, 18100 nM and 21.8.
For `Cc1cc(NC(=O)c2cc(NC(=O)NCc3cc(F)c(F)c(F)c3)c(F)cc2Br)ccc1F`, in the series on Hepatitis B virus [5], the EC50 was determined as 720 nM. Also, the CC50 at 72 h in series [6] turned out to be 3690 nM. The selectivity ratio in [7] was determined as 5.13.
For `Cc1cc(CNC(=O)Nc2cc(C(=O)Nc3ccc(F)c(C)c3)c(Br)cc2F)ccc1F`, in that order: 320 nM, 3280 nM and 10.2.
For `CCOC(=O)C1=C(CN2CCOCC2)NC(c2nccs2)=N[C@H]1c1ccc(C)cc1Br`, the EC50 with Hepatitis B virus [5] worked out at 17 nM. The CC50 at 72 h in series [6] was above 100000 nM. The selectivity ratio in series [7] is above 5920. It took 860 nM to reach half-maximal inhibition against Core antigen (IC50).
Consider `Cc1cc(NC(=O)c2cc(NC(=S)NCc3ccc(B(O)O)cc3)c(F)cc2C)ccc1F`, for which, in the series on Hepatitis B virus [5], the concentration for a half-maximal effect (EC50) amounted to 10 nM. In addition, in series [6], the CC50 at 72 h was 5950 nM. Also, the selectivity ratio in series [7] came to 595.
For `Cc1cc(NC(=O)c2cc(NC(=S)NCc3cc(F)cc(F)c3)c(F)cc2Br)ccc1F`, in that order: 220 nM, 3610 nM and 16.4.
The matching figures for `CCC(CC)NC(=O)Nc1cc(C(=O)Nc2ccc(F)c(C)c2)c(Br)cc1F`: 990 nM, 18000 nM and 18.2.
Turning to `Cc1cc(NC(=O)c2cc(NC(=O)c3ccc(Br)cc3)c(F)cc2Br)ccc1F`, the EC50 with Hepatitis B virus [5] stood at 190 nM. Moreover, in series [6], the half-maximal cytotoxic concentration (CC50) at 72 h amounted to 2400 nM. Also, the selectivity ratio in [7] worked out at 12.6.

(Values after ChEMBL document CHEMBL5370621, “Design, Synthesis, and Biological Evaluation of Novel Thioureidobenzamide (TBA) Derivatives as HBV Capsid Assembly Modulators” (J Med Chem, 2023).)
